Patent US12226405B2, “Compounds and compositions for inhibiting the activity of HIF2-alpha and their methods of use” (Novartis AG, priority 2020, dated 2025)

Key:
[1] = test system: HIF2α-dependent transcription in 786-O-HRE-Luc cells; test: In vitro cellular hypoxia response element (HRE) reporter gene assay (RGA) for HIF2α; assay type: cell-based, human; details: Homo sapiens, 24 hours incubation
Outline: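 Renal carcinoma cells carrying a 4×HRE-driven PEST-destabilised firefly luciferase were treated a day after seeding with eleven 2-fold compound dilutions (0.1% DMSO) for 24 h at 37° C. BrightGlo luminescence, background-subtracted and expressed as % of DMSO control, was fitted four-parametrically for IC50.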

[2] = target: T1, HIF2α PAS-B domain (236-350, biotinylated on the N-terminus) (Homo sapiens (Human), UniProt Q99814)
T1 sequence (Q99814 236-350): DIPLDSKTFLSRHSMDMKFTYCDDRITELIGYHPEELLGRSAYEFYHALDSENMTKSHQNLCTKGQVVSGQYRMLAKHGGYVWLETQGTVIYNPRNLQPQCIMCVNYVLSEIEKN
Protocol: (§1) The assay buffer contained 50 mM Tris-HCl pH7 (Sigma), 20 mM NaCl (Fluka), 0.02% BSA (Sigma), 0.005% Triton X-100 (Pierce) and 1 mM DTT (Fluka). After a 30 min incubation period, 5 μL Streptavidin PVT SPA Beads (Perkin Elmer) at 1.2 mg/mL, diluted in the buffer, were added.

[3] = target: T1, HIF2α PAS-B domain (236-350, biotinylated on the N-terminus); test: In vitro SPA with the PAS-B domain of HIF2α (competition binding with radio-ligand); details: versus corresponding enantiomer
Protocol: as §1

Row | SMILES | IC50 [1] [nM] | IC50 [2] [nM] | IC50 in the Hif2α SPA assay, fold lower than for the corresponding (R)-enantiomer [3]
1 | FC(F)OC1=CC(C(F)(F)F)=CN2C[C@@]3(CCC(F)(F)c4c3ccnc4Cl)N=C12 [Example 31, (S)-1′-chloro-8-(difluoromethoxy)-8′,8′-difluoro-6-(trifluoromethyl)-7′,8′-dihydro-3H,6′H-spiro[imidazo[1,2-a]pyridine-2,5′-isoquinoline]] | 246 | 9 | 
2 | FC(F)OC1=CC(C(F)(F)F)=CN2C[C@@]3(CCOc4cc(C(F)(F)F)ccc43)N=C12 [Example 44, (S)-8′-(difluoromethoxy)-6′,7-bis(trifluoromethyl)-3′H-spiro[chroman-4,2′-imidazo[1,2-a]pyridine]] | 112 | 13 | greater than 700 fold
